From publication PMC10385824, “Antiproliferative and Tubulin-Destabilising Effects of 3-(Prop-1-en-2-yl)azetidin-2-Ones and Related Compounds in MCF-7 and MDA-MB-231 Breast Cancer Cells” (Pharmaceuticals, 2023) come the findings set out here.

The structures appear in SMILES notation. Where two headings read alike, the source gives them in different places.

Data set [1] deals with MCF-7 cells. Nature of the data set: Lactate dehydrogenase (LDH) cytotoxicity assay. The data set is classed as cell-based, human. The following applies: 10 μM, 72 h, LDH release. The procedure: The cytotoxic effects of the compounds were determined using the CytoTox 96 non-radioactive cytotoxicity assay (Promega) as previously reported. The MCF-7 cells were seeded in 96-well plates and incubated for 24 h. Cells were treated with test compounds 16, 26 and 30 at 10 μM concentration as described in the cell viability assay above. At 72 hr, 20 μL of ‘lysis solution (10X)’ was added to the control wells to ensure 100% death. The cells were incubated for a further 1 hr. Supernatant (50 μL) was removed from each well and transferred to a 96-well plate. Cytotox 96R Reagent (50 μL) was added to each well, and the plate was retained in darkness at 20 °C for 30 min. 50 μL of ‘stop solution’ was then added to each well, and the absorbance was determined at 490 nm using a Dynatech MR5000 plate reader. The cell death (%) at 10 μM was determined.
Background: Release of lactate dehydrogenase indicates damage to the cell membrane.

A further data set deals with HCT-2998. Nature of the data set: NCI-60 SRB screen, colon cancer. The data set is classed as cell-based, human. The following applies: 48 h; for GI50: Homo sapiens.
Data set [2] deals with microtubule network in MCF-7 cells. Nature of the data set: Immunofluorescence confocal microscopy. The data set is classed as cell-based, human. The following applies: 16 h. As for the experimental part: CA-4 and β-lactam 9q depolymerise the microtubule network in MCF-7 cells. […] After 16 h, the cells were fixed in 4% paraformaldehyde and stained with mouse monoclonal anti-α-tubulin−FITC antibody (clone DM1A) (green), Alexa Fluor 488 dye, and counterstained with DAPI (blue). The confocal images were obtained by Leica SP8 confocal microscopy with Leica application suite X software. Representative confocal micrograph images of three separate experiments are shown above [scale bar: […]].
The effects of β-lactam 9q on MCF-7 cytoskeleton were determined using confocal microscopy as previously described. MCF-7 cells were seeded at 1 × 10^5 cells/mL in glass slides with eight chambers (BD Biosciences, San Jose, CA, USA). […] Following treatment, cells were gently washed in PBS, fixed for 20 min with 4% paraformaldehyde in PBS and permeabilised in 0.5% Triton X-100. The cells were then washed with PBS-T (PBS containing 0.1% Tween), blocked in 5% bovine serum albumin diluted in PBS-T and incubated with mouse monoclonal anti-α-tubulin-FITC antibody (clone DM1A) (Sigma, Milwaulkee, WI, USA) (1:100) for 2 h at 20 °C. The cells were washed again with PBS-T and incubated with Alexa Fluor 488 dye (1:450) for 1 h at 20 °C. Following washes in PBST, the cells were mounted in Ultra Cruz Mounting Media (Santa Cruz Biotechnology, Santa Cruz, CA, USA), which contained 4,6-diamino-2-phenolindol dihydrochloride (DAPI). The immunofluorescence cell images were captured by Leica SP8 confocal microscopy and analysed with Leica application suite X software. Microscopy experiments were performed on three independent occasions, and the images for these experiments were obtained on the same day using identical conditions.

Data set [3] is described as follows: HPLC stability study in phosphate buffers. The data set is classed as physicochemical. The following applies: for half-life at 14.6 µg/mL / remaining at 24 h, 14.6 µg/mL / remaining at 264 h, 14.6 µg/mL: phosphate buffer; for half-life at 14.6 µg/mL: read-out: half-life (t½) (converted); for remaining at 24 h, 14.6 µg/mL: study over 24 h; for remaining at 264 h, 14.6 µg/mL: study over 264 h.

Data set [4] can be described thus: HPLC stability study in plasma. The data set is classed as in vitro ADME, human. Conditions: buffered plasma (plasma:buffer 1:9); for half-life at 41.3 µg/mL: human blood plasma, read-out: half-life (t½); for remaining at 24 h, 41.3 µg/mL: study over 24 h. As for the experimental part: Analytical high-performance liquid chromatography (HPLC) stability studies were performed as follows using Symmetry® column (C18, 5 µm, 4.6 × 150 mm), Waters 2487 Dual Wavelength Absorbance detector, Waters 1525 binary HPLC pump and Waters 717 plus Autosampler (Waters Corporation, Milford, MA, USA) with detection at 254 nm as previously described. Samples were analysed using mobile phase acetonitrile (80%): water (20%), flow rate (1 mL/min) over 10 min. […] First, 30 µL of compound stock solution was diluted with appropriate buffer (1 mL); sample was shaken and injected immediately. Samples were withdrawn and analysed at the following time points: t = 0 min, 5 min, 30 min, 60 min, 90 min, 120 min, 24 h and 48 h. (ii) Thermal stability: Compound stock solution (1 mL) was placed in a glass vial on a heating block for 4 h at 60 °C. The sample was then cooled, diluted (acetonitrile) and analysed. (ii) Oxidising conditions: H2O2 (3%, 0.2 mL) was added to compound stock solution (0.8 mL). The vial was vortexed and retained at 20 °C, and the sample was analysed at 60, 120 180 and 240 min. (iv) Acidic conditions: HCl (0.1 M, 0.2 mL) was added to stock solutions (0.8 mL). The vial was mixed by vortex and retained at 20 °C. A sample was neutralised with NaOH (0.1 M, 0.2 mL) at 60, 120, 180 and 240 min, followed by HPLC analysis. (v) Alkaline conditions: NaOH (0.1 M, 0.2 mL) was added to stock solution (0.8 mL) of the compound in a vial. The vial was mixed by vortex and retained at 20 °C. A sample was neutralised with HCl (0.1 M, 0.2 mL) at 60, 120, 180 and 240 min followed by HPLC analysis. (vi) Photostability study: Compounds (stock solution, 1 mL) were placed in a vial, exposed to UV light for 4 h and then analysed by HPLC as above. Stability studies in plasma: Approval for this study was obtained from the School of Pharmacy and Pharmaceutical Sciences Trinity College Dublin Research Ethics Committee (2020–06-01-MS). Following informed consent, blood was withdrawn from healthy volunteers, and plasma was obtained by centrifugation and kept at −20 °C until further use. […] A sample (250 µL) was then added to the Eppendorf tube containing ZnSO4.7H2O solution (500 µL) (2% w/v ZnSO4 solution in acetonitrile:water, 1:1). The samples were centrifuged (10,000 rpm, 3 min), filtered (0.2 micron filter) and analysed by HPLC as above. Further samples were taken at one-hour intervals.

The subject of a further data set is SF-268. The data set can be described thus: NCI-60 SRB screen, CNS cancer. The following applies: 48 h; for GI50: Homo sapiens, five dose 0.01–100 µM. The data set is classed as cell-based, human. The procedure: The initial NCI 60 cell line screen used the sulforhodamine B (SRB) protein assay, at one dose concentration (10 μM), and subsequently, a five-dose screening in the concentration range 0.01–100 μM was carried out.

Another data set has as its system UACC-257. The data set can be described thus: NCI-60 SRB screen, melanoma. The data set is classed as cell-based, human. The following applies: for GI50: Homo sapiens.
Data set [5] deals with MCF-7 cells. The data set can be described thus: Annexin-V/PI apoptosis assay. Conditions: for cells undergoing apoptosis (early+late): 72 h.
Experimental: Flow cytometry using annexin-V and propidium iodide (PI) was used to detect apoptotic cell death in MCF-7 cells. […] Cells were then incubated on ice in darkness for 30 min in annexin-V-containing binding buffer [1:100]. Cells were washed once in binding buffer and then re-suspended in propidium iodide containing binding buffer [1:1000]. Cells were analysed directly using the BD Accuri flow cytometer and Prism software. Four cell populations are produced in this assay: annexin-V- and PI-negative (Q4, healthy cells), annexin-V-positive and PI-negative (Q3, early apoptosis), annexin-V- and PI-positive (Q2, late apoptosis) and annexin-V-negative and PI-positive (Q1, necrosis). CA-4 (50 nM) was used as the positive control for apoptosis.
Cells were then collected and processed for analysis.
The subject of data set [6] is colchicine-binding site of β-tubulin (Cys239, Cys354) in MCF-7 cells. The data set can be described thus: Colchicine-binding site assay (EBI crosslinking, Western blot). Conditions: 10 μM, 2 h, then EBI. (Immunoblotting shows a protein as a band on a membrane.)
Experimental: MCF-7 cells were seeded at density of 5 × 10^4 cells/well in 6-well plates and incubated overnight. […] Samples were separated by SDS-PAGE, transferred to polyvinylidene difluoride membranes and examined with β-tubulin antibodies (Sigma-Aldrich, Milwaulkee, WI, USA) [99].
Cells were harvested, lysed and then analysed using sedimentation followed by Western blotting to identify β-tubulin and β-tubulin-EBI adduct.
Setting [7] is: HCT-2998, five dose 0.01–100 µM, read-out: GI50.
The mark [8] stands for this setting: Homo sapiens, MCF7, 72 h, read-out: Viable.
[9] abbreviates: UACC-257, five dose 0.01–100 µM, 48 h, read-out: GI50.

As a reminder, the GI50 is the concentration giving 50% growth inhibition. `C=C(C)C1C(=O)N(c2cc(OC)c(OC)c(OC)c2)C1c1ccc(OC)cc1` (stereo not shown) [9h, 4-(4-Methoxyphenyl)-1-(3,4,5-trimethoxyphenyl)-3-(prop-1-en-2-yl)azetidin-2-one]: in the data set on MCF-7 cells [1], the cell death is recorded as 30%. Also, the GI50 in the data set on HCT-2998 (setting [7]) was 30.7 nM.

One may read the half-life as the time in which the quantity being followed falls by half. The amount remaining is the share of the starting amount still present when the sample was taken. High values mean less turnover, low ones more turnover. In turn, `C=C(C)C1C(=O)N(c2cc(OC)c(OC)c(OC)c2)C1c1ccc(OC)c(O)c1` (stereo not shown) [9q, 4-(3-Hydroxy-4-methoxyphenyl)-1-(3,4,5-trimethoxyphenyl)-3-(prop-1-en-2-yl)azetidin-2-one] returned a cell death with MCF-7 cells [1] of 32%. Also, the “effect on microtubule network” value in data set [2] is “microtubule formation was inhibited and resulted in depolymerised microtubules”. Further, the half-life at 14.6 µg/mL is 13 h in data set [3] (pH 4), 13 h in data set [3] (pH 7.4) and 6 h in [3] (pH 9). Further, the figures for the fraction remaining at 24 h, 14.6 µg/mL in data set [3] (pH 4.0), in [3] (pH 7.4) and in data set [3] (pH 9.0) were 33%, 35% and 34%, respectively. Moreover, the half-life at 41.3 µg/mL in [4] was greater than 24 h. Moreover, the share remaining at 24 h, 41.3 µg/mL in [4] (human, Plasma) turned out to be 80%. Further, the “% Growth” value with HCT-2998 (HCC-2998, one dose 10 µM) is recorded as -6.59%; in the data set on SF-268 (one dose 10 µM), 19.27%; in the data set with UACC-257 (UACC-257, one dose 10 µM, 48 h), 74.47%. Besides, the results for the GI50 with HCT-2998 (setting [7]) and in the data set on SF-268 were 30.1 nM and 22.9 nM, respectively. Moreover, the “cells undergoing apoptosis (early+late)” value in the data set on MCF-7 cells [5] (50 nM) is 27%; in the data set with MCF-7 cells [5] (500 nM), 38.9%. In addition, the viability at 0.05 µM in the data set with MCF-7 cells [5] (setting [8]) is 69.2%. Moreover, in the data set on MCF-7 cells [5] (setting [8]), the viability at 0.5 µM came out at 57%. Also, the “formation of β-tubulin-EBI adduct” value in data set [6] was “formation of the EBI adduct was prevented”.

Consider `C=C(C)C1C(=O)N(c2cc(OC)c(OC)c(OC)c2)C1c1ccc(OC)c(N)c1` (stereo not shown) [9s, 4-(3-Amino-4-methoxyphenyl)-1-(3,4,5-trimethoxyphenyl)-3-(prop-1-en-2-yl)azetidin-2-one], for which the values for the GI50 in the data set on HCT-2998 (setting [7]) and in the data set with UACC-257 (setting [9]) were 29.1 nM and greater than 100000 nM, respectively.

On to `C=CCC1C(=O)N(c2cc(OC)c(OC)c(OC)c2)C1c1ccc(OC)c(O)c1` (stereo not shown) [10p, 4-(3-Hydroxy-4-methoxyphenyl)-1-(3,4,5-trimethoxyphenyl)-3-allylazetidin-2-one], for which the compound remaining entry in [3] (all pH values (4, 7.4, 9), after 11 days) was “over 95%”. The fraction remaining at 264 h, 14.6 µg/mL in [3] (pH 4.0) was 98%; in [3] (pH 7.4), 99%; in data set [3] (pH 9.0), 96%. For the same compound, the half-life at 14.6 µg/mL in data set [3] (pH range studied, medium not specified) was greater than 24 h. In data set [4] (human, Plasma, study over 264 h), this compound had a fraction remaining at 264 h, 41.3 µg/mL of 97%. The GI50 in the data set with HCT-2998 (setting [7]) came to 29.9 nM.

`C=CC=CC1C(=O)N(c2cc(OC)c(OC)c(OC)c2)C1c1ccc(OC)cc1` (stereo not shown) [11h, 3-(Buta-1,3-dienyl)-4-(4-methoxyphenyl)-1-(3,4,5-trimethoxyphenyl)azetidin-2-one]: the GI50 was 30 nM in the data set with HCT-2998 and 11200 nM in the data set with UACC-257 (UACC-257, 48 h).

On to `C=C/C=C/C1C(=O)N(c2cc(OC)c(OC)c(OC)c2)C1c1ccc(OC)c(N)c1` (stereo not shown) [11r, (E)-4-(3-Amino-4-methoxyphenyl)-3-(buta-1,3-dien-1-yl)-1-(3,4,5-trimethoxyphenyl)azetidin-2-one], for which the GI50 in the data set on HCT-2998 came out at 27 nM.

Turning to `C=C(C)C1C(=O)N(c2cc(OC)c(OC)c(OC)c2)C1c1ccc(OC)c(OP(=O)(O)O)c1` (stereo not shown) [15a, 2-Methoxy-5-(4-oxo-3-(prop-1-en-2-yl)-1-(3,4,5-trimethoxyphenyl)azetidin-2-yl)-phenyl dihydrogen phosphate], the half-life at 14.6 µg/mL in data set [3] (pH 4) and in data set [3] (pH 7.4) was greater than 24 h in each case. The share remaining at 24 h, 14.6 µg/mL in data set [3] (pH 4.0) was determined as 96%; in data set [3] (pH 7.4), 98%. For the same compound, in data set [4], the half-life at 41.3 µg/mL was greater than 24 h. Besides, the amount remaining at 24 h, 41.3 µg/mL in data set [4] (human, Plasma) came to 97%. Moreover, the results for the GI50 in the data set with HCT-2998 (setting [7]), with SF-268 and in the data set with UACC-257 (setting [9]) were 238 nM, 98.1 nM and greater than 100000 nM, respectively.

`COc1ccc(C2C(C(C)C)C(=O)N2c2cc(OC)c(OC)c(OC)c2)cc1OP(=O)(O)O` (stereo not shown) [15b, 5-(3-Isopropyl-1-(3,4,5-trimethoxyphenyl)-4-oxoazetidin-2-yl)-2-methoxyphenyl dihydrogen phosphate]: the GI50 is 452 nM in the data set on HCT-2998 (setting [7]), 447 nM with SF-268 and greater than 100000 nM in the data set with UACC-257 (setting [9]).
